Counter-ions that a name gives are not always drawn.
What follows are molecules tested against recombinant human cGAS (Homo sapiens (Human), UniProt Q8N884) (assay: In vitro inhibition assay of cGAS activity (cGAMP production, RapidFire mass spectrometry)). Details: 10 nM recombinant human cGAS, 60 nM 75-bp dsDNA, ATP, GTP, room temperature 3 hours, read-out: IC50 (μM), In vitro inhibition assay for Compounds 1-94.
Type: biochemical
Protocol: Expression and Purification of Recombinant cGAS Protein: Insert cDNA encoding full-length of human cGAS into a modified bacterial expression vector containing an in-frame His6-tag. Induce the E. coli strain BL21(DE3) harboring the plasmid with 1 mM IPTG (Isopropyl β-D-1-thiogalactopyranoside) at 18° C. overnight. Purify the His6-tagged cGAS protein over HISpur Ni-NTA resin in the presence of benzonase and RNase followed by Superdex 200 size exclusion chromatography with storage buffer (50 mM Tris-HCl pH 7.5, 300 mM NaCl, 1 mM DTT, 10% glycerol).
In vitro inhibition assay of cGAS activity: Add a 5 μL mixture containing 10 mM Tris-Cl pH 7.5, 50 mM NaCl, 5 mM MgCl2, 1 mM DTT, 0.01% Triton X-100, 60 nM 75-bp dsDNA, […], 50 μM GTP, 10 nM of recombinant human cGAS, and serial dilutions of a test compound in DMSO to a 384-well plate and incubate at room temperature for 3 hours. Quench the reaction by the addition of 100 μL of stop solution containing 0.1% formic acid and 0.1 μM internal standard (3′3′-difluoro cGAMP). Measure the amount of cGAMP produced by RapidFire 365 mass spectrometry and evaluate inhibitory effect of a compound by plotting percent specific inhibition of cGAMP production against log concentration of the test compound. Calculate IC50 values using a 4-parameter non-linear logistic equation (y=(S0+((SInf−S0)/(1+((qAC50/x)^nHill))))).

recombinant human cGAS, sequence (Q8N884 whole entry): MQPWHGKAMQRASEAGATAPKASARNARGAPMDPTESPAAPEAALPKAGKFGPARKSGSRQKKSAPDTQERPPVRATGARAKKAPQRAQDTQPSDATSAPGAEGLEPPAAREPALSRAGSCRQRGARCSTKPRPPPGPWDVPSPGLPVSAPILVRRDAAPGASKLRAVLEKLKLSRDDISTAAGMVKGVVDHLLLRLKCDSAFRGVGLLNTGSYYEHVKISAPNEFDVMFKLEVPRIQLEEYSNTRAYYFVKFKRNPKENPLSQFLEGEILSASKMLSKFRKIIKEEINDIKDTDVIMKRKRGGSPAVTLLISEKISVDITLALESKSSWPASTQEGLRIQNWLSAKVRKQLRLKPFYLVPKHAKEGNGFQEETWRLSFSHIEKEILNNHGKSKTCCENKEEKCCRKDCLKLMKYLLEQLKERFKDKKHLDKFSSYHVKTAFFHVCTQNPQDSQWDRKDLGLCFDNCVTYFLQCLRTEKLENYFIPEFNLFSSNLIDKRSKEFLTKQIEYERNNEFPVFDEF

Row | Structure (SMILES) | IC50
1 | Clc1ccc2c(-c3cn[nH]c3)c3n(c2c1Cl)CCNC3 [Example 37, 6,7-Dichloro-10-(1H-pyrazol-4-yl)-1,2,3,4-tetrahydropyrazino[1,2-a]indole hydrochloride] | 0.09 µM
2 | CC(=O)N1CCn2c(c(-c3cn[nH]c3)c3ccc(Cl)c(Cl)c32)C1 [Example 38, 1-[6,7-Dichloro-10-(1H-pyrazol-4-yl)-3,4-dihydro-1H-pyrazino[1,2-a]indol-2-yl]ethanone] | 0.0404 µM
3 | CNC(=O)N1CCn2c(c(-c3cn[nH]c3)c3ccc(Cl)c(Cl)c32)C1 [Example 39, 6,7-dichloro-N-methyl-10-(1H-pyrazol-4-yl)-3,4-dihydro-1H-pyrazino[1,2-a]indole-2-carboxamide] | 0.0392 µM
4 | NS(=O)(=O)N1CCn2c(c(-c3cn[nH]c3)c3ccc(Cl)c(Cl)c32)C1 [Example 40, 6,7-dichloro-10-(1H-pyrazol-4-yl)-3,4-dihydro-1H-pyrazino[1,2-a]indole-2-sulfonamide] | 0.0525 µM
5 | CS(=O)(=O)N1CCn2c(c(-c3cn[nH]c3)c3ccc(Cl)c(Cl)c32)C1 [Example 41, 6,7-dichloro-2-methylsulfonyl-10-(1H-pyrazol-4-yl)-3,4-dihydro-1H-pyrazino[1,2-a]indole] | 0.0328 µM
6 | COCC(=O)N1CCn2c(c(-c3cn[nH]c3)c3ccc(Cl)c(Cl)c32)C1 [Example 42, 1-[6,7-dichloro-10-(1H-pyrazol-4-yl)-3,4-dihydro-1H-pyrazino[1,2-a]indol-2-yl]-2-methoxy-ethanone] | 0.0273 µM
7 | O=C(Cn1cncn1)N1CCn2c(c(-c3cn[nH]c3)c3ccc(Cl)c(Cl)c32)C1 [Example 43, 1-[6,7-dichloro-10-(1H-pyrazol-4-yl)-3,4-dihydro-1H-pyrazino[1,2-a]indol-2-yl]-2-(1,2,4-triazol-1-yl)ethanone] | 0.0912 µM
8 | CN(C)C(=O)CCC(=O)N1CCn2c(c(-c3cn[nH]c3)c3ccc(Cl)c(Cl)c32)C1 [Example 44, 4-[6,7-dichloro-10-(1H-pyrazol-4-yl)-3,4-dihydro-1H-pyrazino[1,2-a]indol-2-yl]-N,N-dimethyl-4-oxo-butanamide] | 0.0534 µM
9 | O=C(CN1CCOCC1)N1CCn2c(c(-c3cn[nH]c3)c3ccc(Cl)c(Cl)c32)C1 [Example 45, 1-[6,7-dichloro-10-(1H-pyrazol-4-yl)-3,4-dihydro-1H-pyrazino [1,2-a]indole-2-yl]-2-morpholino-ethanone] | 0.0834 µM
10 | Cn1ncnc1COCC(=O)N1CCn2c(c(-c3cn[nH]c3)c3ccc(Cl)c(Cl)c32)C1 [Example 46, 1-[6,7-dichloro-10-(1H-pyrazol-4-yl)-3,4-dihydro-1H-pyrazino[1,2-a]indol-2-yl]-2-[(2-methyl-1,2,4-triazol-3-yl)methoxy]ethanone] | 0.027 µM
11 | COCc1nnc(CN2CCn3c(c(-c4cn[nH]c4)c4ccc(Cl)c(Cl)c43)C2)o1 [Example 47, 2-[[6,7-dichloro-10-(1H-pyrazol-4-yl)-3,4-dihydro-1H-pyrazino[1,2-a]indol-2-yl]methyl]-5-(methoxymethyl)-1,3,4-oxadiazole formic acid salt] | 0.0333 µM
12 | O=C(CN1CCOC1=O)N1CCn2c(c(-c3cn[nH]c3)c3ccc(Cl)c(Cl)c32)C1 [Example 48] | 0.0443 µM
13 | CN1CCOC(C(=O)N2CCn3c(c(-c4cn[nH]c4)c4ccc(Cl)c(Cl)c43)C2)C1 (stereo not shown) [Example 50, [6,7-dichloro-10-(1H-pyrazol-4-yl)-3,4-dihydro-1H-pyrazino[1,2-a]indol-2-yl]-(4-methylmorpholin-2-yl)methanone] | 0.04 µM
14 | O=C(C1COCCO1)N1CCn2c(c(-c3cn[nH]c3)c3ccc(Cl)c(Cl)c32)C1 (stereo not shown) [Example 51, [6,7-dichloro-10-(1H-pyrazol-4-yl)-3,4-dihydro-1H-pyrazino[1,2-a]indol-2-yl]-(1,4-dioxan-2-yl)methanone] | 0.0427 µM
15 | CC(=O)N(C)CC(=O)N1CCn2c(c(-c3cn[nH]c3)c3ccc(Cl)c(Cl)c32)C1 [Example 52, N-[2-[6,7-dichloro-10-(1H-pyrazol-4-yl)-3,4-dihydro-1H-pyrazino[1,2-a]indol-2-yl]-2-oxo-ethyl]-N-methyl-acetamide] | 0.0975 µM
16 | O=C(CO)N1CCn2c(c(-c3cn[nH]c3)c3ccc(Cl)c(Cl)c32)C1 [Example 53, 1-[6,7-dichloro-10-(1H-pyrazol-4-yl)-3,4-dihydro-1H-pyrazino[1,2-a]indol-2-yl]-2-hydroxy-ethanone] | 0.0268 µM
17 | O=C(O)CCc1[nH]c2c(Cl)c(Cl)ccc2c1-c1cn[nH]c1 [Example 54, 3-(6,7-Dichloro-3-(1H-pyrazol-4-yl)-1H-indol-2-yl) propanoic acid] | 0.0381 µM
18 | O=C1CCn2c(c(-c3cn[nH]c3)c3ccc(Cl)c(Cl)c32)N1 [Example 55, 6,7-Dichloro-10-(1H-pyrazol-4-yl)-3,4-dihydro-1H-pyrimido[1,2-a]indol-2-one] | 0.0946 µM
19 | CCOc1cc(Cl)c(Cl)c2[nH]cc(-c3cn[nH]c3)c12 [Example 56, 6,7-Dichloro-4-ethoxy-3-(1H-pyrazol-4-yl)-1H-indole] | 0.0826 µM

Row | Structure (SMILES) | IC50
20 | OCCOc1cc(Cl)c(Cl)c2[nH]cc(-c3cn[nH]c3)c12 [Example 57, 2-((6,7-Dichloro-3-(1H-pyrazol-4-yl)-1H-indol-4-yl)oxy)ethanol] | 0.0352 µM
21 | N#CCOc1cc(Cl)c(Cl)c2[nH]cc(-c3cn[nH]c3)c12 [Example 58, 2-[[6,7-Dichloro-3-(1H-pyrazol-4-yl)-1H-indol-4-yl]oxy]acetonitrile] | 0.0158 µM
22 | NC(=O)COc1cc(Cl)c(Cl)c2[nH]cc(-c3cn[nH]c3)c12 [Example 59, 2-[[6,7-Dichloro-3-(1H-pyrazol-4-yl)-1H-indol-4-yl]oxy]acetamide] | 0.0242 µM
23 | CC(C#N)Oc1cc(Cl)c(Cl)c2[nH]cc(-c3cn[nH]c3)c12 (stereo not shown) [Example 60, 2-[[6,7-Dichloro-3-(1H-pyrazol-4-yl)-1H-indol-4-yl]oxy]propanenitrile] | 0.0855 µM
24 | N#CCOc1cc(Cl)c(Cl)c2[nH]cc(-n3ccnc3)c12 [Example 61, 2-[(6,7-Dichloro-3-imidazol-1-yl-1H-indol-4-yl)oxy]acetonitrile] | 0.0326 µM
25 | OCCNc1cc(Cl)c(Cl)c2[nH]cc(-c3cn[nH]c3)c12 [Example 62, 2-[[6,7-Dichloro-3-(1H-pyrazol-4-yl)-1H-indol-4-yl]amino]ethanol] | 0.0151 µM
26 | N#CCNc1cc(Cl)c(Cl)c2[nH]cc(-c3cn[nH]c3)c12 [Example 63, 2-[[6,7-Dichloro-3-(1H-pyrazol-4-yl)-1H-indol-4-yl]amino] acetonitrile] | 0.0273 µM
27 | NC(=O)CNc1cc(Cl)c(Cl)c2[nH]cc(-c3cn[nH]c3)c12 [Example 64, 2-[[6,7-Dichloro-3-(1H-pyrazol-4-yl)-1H-indol-4-yl]amino] acetamide] | 0.0486 µM
28 | O=C(CO)Nc1cc(Cl)c(Cl)c2[nH]cc(-c3cn[nH]c3)c12 [Example 65, N-[6,7-Dichloro-3-(1H-pyrazol-4-yl)-1H-indol-4-yl]-2-hydroxy-acetamide] | 0.0158 µM
29 | CC(=O)Nc1cc(Cl)c(Cl)c2[nH]cc(-c3cn[nH]c3)c12 [Example 66, N-[6,7-Dichloro-3-(1H-pyrazol-4-yl)-1H-indol-4-yl]acetamide] | 0.0349 µM
30 | O[C@H]1C[C@@H](Nc2cc(Cl)c(Cl)c3[nH]cc(-c4cn[nH]c4)c23)C1 [Example 67, (cis)-3-((6,7-Dichloro-3-(1H-pyrazol-4-yl)-1H-indol-4-yl)amino)cyclobutanol] | 0.0371 µM
31 | O=C1CCc2c(-c3cn[nH]c3)c3ccc(Cl)c(Cl)c3n21 [Example 68, 7,8-Dichloro-4-(1H-pyrazol-4-yl)-2,3-dihydropyrrolo[1,2-a] indol-1-one] | 0.0965 µM
32 | Clc1ccc2c(-c3cn[nH]c3)c3n(c2c1Cl)CCC(c1nn[nH]n1)C3 (stereo not shown) [Example 69, 3,4-Dichloro-10-(1H-pyrazol-4-yl)-8-(1H-tetrazol-5-yl)-6,7,8,9-tetrahydropyrido[1,2-a]indole] | 0.0449 µM
33 | N#CCOc1cc(Cl)c(F)c2[nH]cc(-c3cn[nH]c3)c12 [Example 70, 2-[[6-Chloro-7-fluoro-3-(1H-pyrazol-4-yl)-1H-indol-4-yl]oxy] acetonitrile] | 0.0173 µM
34 | NC(=O)COc1cc(Cl)c(F)c2[nH]cc(-c3cn[nH]c3)c12 [Example 71, 2-[[6-Chloro-7-fluoro-3-(1H-pyrazol-4-yl)-1H-indol-4-yl]oxy] acetamide] | 0.0463 µM
35 | N#CCOc1cc(Cl)c(F)c2[nH]cc(-n3ccnc3)c12 [Example 72, 2-[(6-Chloro-7-fluoro-3-imidazol-1-yl-1H-indol-4-yl)oxy]acetonitrile] | 0.0772 µM
36 | OCCC1CCc2c(-c3cn[nH]c3)c3ccc(Cl)c(Cl)c3n2C1 (stereo not shown) [Example 73, 2-[3,4-Dichloro-10-(1H-pyrazol-4-yl)-6,7,8,9-tetrahydropyrido[1,2-a]indol-7-yl] ethanol] | 0.062 µM
37 | O=C1CCCN1C1CCc2c(-c3cn[nH]c3)c3ccc(Cl)c(Cl)c3n2C1 (stereo not shown) [Example 74, 1-[3,4-Dichloro-10-(1H-pyrazol-4-yl)-6,7,8,9-tetrahydropyrido[1,2-a]indol-7-yl]pyrrolidin-2-one] | 0.0847 µM
